Assay results as given in patent US10899758B2, “Inhibitors of the menin-MLL interaction” (Vitae Pharmaceuticals, LLC, priority 2016, dated 2021).
Read-outs that look alike come from different tables or passages of the source.

Legend:
[1] = target: T1, menin/MLL binding (biotinylated wild-type or mutated menin and MLL-AF9 fusion protein) (Homo sapiens, UniProt O00255); test: Assay 1 (Binding Assay): AlphaLISA menin/MLL binding; conditions: 5 nM biotinylated menin, MLL-AF9-FLAG lysate
T1 construct: biotinylated (1) wild-type menin or (2) mutated menin (described in Nature (2012) Vol. 482, pp. 542-548); fused on or other part: Biotin attached chemically (Sulfo-NHS-Biotin); no fused second protein is printed for menin
T1 sequence (O00255 1-459 limits assumed): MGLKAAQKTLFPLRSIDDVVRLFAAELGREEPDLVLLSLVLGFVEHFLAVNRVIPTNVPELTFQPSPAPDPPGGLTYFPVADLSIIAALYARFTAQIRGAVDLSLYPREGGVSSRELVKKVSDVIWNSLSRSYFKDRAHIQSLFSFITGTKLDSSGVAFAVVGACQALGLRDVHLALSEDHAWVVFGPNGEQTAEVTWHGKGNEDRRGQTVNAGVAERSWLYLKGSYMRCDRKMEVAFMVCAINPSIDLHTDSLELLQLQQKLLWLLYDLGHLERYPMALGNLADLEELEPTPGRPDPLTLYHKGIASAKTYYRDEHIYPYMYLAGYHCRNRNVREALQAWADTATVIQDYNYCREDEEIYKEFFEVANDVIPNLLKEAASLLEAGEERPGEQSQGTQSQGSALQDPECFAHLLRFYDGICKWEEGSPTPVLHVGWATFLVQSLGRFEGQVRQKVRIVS
Summary of the method: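 Biotinylated E. coli-expressed menin (wild-type or mutant), 5 nM, incubated 30 min RT with compound and HEK293 lysate of MLL1-1,396–AF9-FLAG in pH 7.4 Tris buffer, 5% DMSO, 1 mM DTT. Anti-FLAG acceptor and streptavidin donor beads added, 60 min RT, AlphaLISA signal read. IC50 from four-parameter fit of % inhibition.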

[2] = system: human acute monocytic leukemia cell line MV-4-11; test: Assay 2 (Cell Proliferation Assay), ATP quantitation (CellTiter-Glo); assay type: cell-based; conditions: MV-4-11 cells, read-out: Assay 2 (EC50, inhibition of cell proliferation)
Protocol: Potencies of inhibitor compounds against cell proliferation was assessed against the human acute monocytic leukemia cell line MV-4-11 (ATCC® CRL-9591™) based on ATP quantitation. MV-4-11 cells or toxicity control HL-60 cells (ATCC® CCL-240™) were incubated in 96-well tissue culture plates (1.67×10^4 cells in 200 μL culture media containing 10% FBS per well) with or without test compound for 72 h at 37° C., 5% CO2. After incubation, each well was mixed by pipetting and 95 μL from each well was transferred to a well in 96-well black OptiPlate® plates (PerkinElmer). An equal volume of CellTiter-Glo® Luminescent Cell Viability Assay reagent (Promega) was added to each well, followed by mixing for 5 min on an orbital plate shaker. Luminescence was measured on a Wallac EnVision 2104 Multilabel Reader (PerkinElmer) to quantitate ATP. Percent inhibition of cell proliferation by test compounds was calculated based on uninhibited cell growth (DMSO) versus cells treated with a potent menin inhibitor at a concentration yielding at least 100×LD50.

CC(C)N(C)C(=O)c1cc(F)ccc1-n1cc(C2CCC(N(C)C)CC2)c2ccncc21 (single isomer, unassigned) [Example 54A, 2-(3-(4-(dimethylamino)cyclohexyl)-1H-pyrrolo[2,3-c]pyridin-1-yl)-5-fluoro-N-isopropyl-N-methylbenzamide]
IC50 [1]: 100 to 1000 nM
EC50 ([2]; 72 h): ≥ 1000 nM

CC(C)N(C)C(=O)c1cc(F)ccc1-n1cc([C@H]2CC[C@H](N3CCOCC3)CC2)c2ccncc21 [Example 117, 5-fluoro-N-isopropyl-N-methyl-2-(3-(trans-4-morpholinocyclohexyl)-1H-pyrrolo[2,3-c]pyridin-1-yl)benzamide]
IC50 [1]: < 100 nM
EC50 ([2]; Homo sapiens, MV4-11, 72 h): ≥ 1000 nM

Cc1c(CN2CCC(n3c(=O)n(-c4ccc(F)cc4)c4cnccc43)CC2)ccc2[nH]c(C#N)cc12 [Example 80, 5-((4-(3-(4-fluorophenyl)-2-oxo-2,3-dihydro-1H-imidazo[4,5-c]pyridin-1-yl)piperidin-1-yl)methyl)-4-methyl-1H-indole-2-carbonitrile]
IC50 [1]: < 100 nM
EC50 ([2]; Homo sapiens, MV4-11, 72 h): ≥ 1000 nM

CC(C)N(C)C(=O)c1cc(F)ccc1-n1cc(C2CCN(CCc3ccc(S(C)(=O)=O)cc3)CC2)c2ccncc21 [Example 24, 5-fluoro-N-isopropyl-N-methyl-2-(3-(1-(4-(methylsulfonyl)phenethyl)piperidin-4-yl)-1H-pyrrolo[2,3-c]pyridin-1-yl)benzamide]
IC50 [1]: < 100 nM
EC50 ([2]; Homo sapiens, MV4-11, 72 h): 100 to 1000 nM

CC(C)N(C)C(=O)c1cc(F)ccc1-n1cc([C@H]2CC[C@H](N3CCCC3)CC2)c2ccncc21 [Example 55, 5-fluoro-N-isopropyl-N-methyl-2-(3-(trans-4-(pyrrolidin-1-yl)cyclohexyl)-1H-pyrrolo[2,3-c]pyridin-1-yl)benzamide]
IC50 [1]: < 100 nM
EC50 ([2]; Homo sapiens, MV4-11, 72 h): 100 to 1000 nM

CC(C)N(C)C(=O)c1cc(F)ccc1-n1cc(C2CCCN(Cc3ccc4[nH]c(=O)[nH]c4c3)C2)c2ccncc21 (centres unmarked) [Example 43, 5-fluoro-N-isopropyl-N-methyl-2-(3-(1-((2-oxo-2,3-dihydro-1H-benzo[d]imidazol-5-yl)methyl)piperidin-3-yl)-1H-pyrrolo[2,3-c]pyridin-1-yl)benzamide]
IC50 [1]: < 100 nM
EC50 ([2]; Homo sapiens, MV4-11, 72 h): < 100 nM

CC(=O)OCCn1c(=O)[nH]c2cc(CN3CCC[C@H](c4cn(-c5ccc(F)cc5C(=O)N(C)C(C)C)c5cnccc45)C3)ccc21 [Example 85, (R)-2-(5-((3-(1-(4-fluoro-2-(isopropyl(methyl)carbamoyl)phenyl)-1H-pyrrolo[2,3-c]pyridin-3-yl)piperidin-1-yl)methyl)-2-oxo-2,3-dihydro-1H-benzo[d]imidazol-1-yl)ethyl acetate]
IC50 [1]: < 100 nM
EC50 ([2]; Homo sapiens, MV4-11, 72 h): < 100 nM

CC(C)N(C)C(=O)c1cc(F)ccc1-n1cc(C2CCN(Cc3ccc4[nH]c(C#N)cc4c3)CC2)c2ccncc21 [Example 7, 2-(3-(1-((2-cyano-1H-indol-5-yl)methyl)piperidin-4-yl)-1H-pyrrolo[2,3-c]pyridin-1-yl)-5-fluoro-N-isopropyl-N-methylbenzamide]
IC50 [1]: < 100 nM
EC50 ([2]; Homo sapiens, MV4-11, 72 h): < 100 nM

CC(C)N(C)C(=O)c1cc(F)ccc1-n1cc(C2CCC(N(C)CC3CCC(NS(C)(=O)=O)CC3)CC2)c2ccncc21 (single isomer, unassigned) [Example 128, 5-fluoro-N-isopropyl-N-methyl-2-(3-(4-(methyl((4-(methylsulfonamido)cyclohexyl)methyl)amino)cyclohexyl)-1H-pyrrolo[2,3-c]pyridin-1-yl)benzamide]
IC50 [1]: < 100 nM
EC50 ([2]; Homo sapiens, MV4-11, 72 h): < 100 nM

CC(C)N(C)C(=O)c1cc(F)ccc1-n1cc(C2CCN(Cc3ccc(Cl)cc3)CC2)c2ccncc21 [Example 10, 2-(3-(1-(4-chorobenzyl)piperidin-4-yl)-1H-pyrrolo[2,3-c]pyridin-1-yl)-5-fluoro-N-isopropyl-N-methylbenzamide]
IC50 [1]: < 100 nM
EC50 ([2]; Homo sapiens, MV4-11, 72 h): 100 to 1000 nM

CC(C)N(C)C(=O)c1cc(F)ccc1-n1cc(C2CCNC(Cc3ccccc3)C2)c2ccncc21 (centres unmarked) [Example 31, 2-(3-(2-benzylpiperidin-4-yl)-1H-pyrrolo[2,3-c]pyridin-1-yl)-5-fluoro-N-isopropyl-N-methylbenzamide]
IC50 [1]: < 100 nM
EC50 ([2]; Homo sapiens, MV4-11, 72 h): < 100 nM

Cc1c(CN2CCC(c3cn(-c4ccc(F)cc4)c4cnccc34)CC2)ccc2[nH]c(C#N)cc12 [Example 37, 5-((4-(1-(4-fluorophenyl)-1H-pyrrolo[2,3-c]pyridin-3-yl)piperidin-1-yl)methyl)-4-methyl-1H-indole-2-carbonitrile]
IC50 [1]: < 100 nM
EC50 ([2]; Homo sapiens, MV4-11, 72 h): 100 to 1000 nM

CC(C)N(C)C(=O)c1cc(F)ccc1-n1cc(C2CCN(Cc3ccc4c(c3)[nH]c(=O)n4CCO)C2)c2ccncc21 (centres unmarked) [Example 123, 5-fluoro-2-(3-(1-((1-(2-hydroxyethyl)-2-oxo-2,3-dihydro-1H-benzo[d]imidazol-5-yl)methyl)pyrrolidin-3-yl)-1H-pyrrolo[2,3-c]pyridin-1-yl)-N-isopropyl-N-methylbenzamide]
IC50 [1]: < 100 nM
EC50 ([2]; Homo sapiens, MV4-11, 72 h): < 100 nM

CC(C)N(C)C(=O)c1cc(F)ccc1-n1cc(C2CCN(CCN3CCC(NS(C)(=O)=O)CC3)CC2)c2ccncc21 [Example 93, 5-fluoro-N-isopropyl-N-methyl-2-(3-(1-(2-(4-(methylsulfonamido)piperidin-1-yl)ethyl)piperidin-4-yl)-1H-pyrrolo[2,3-c]pyridin-1-yl)benzamide]
IC50 [1]: < 100 nM
EC50 ([2]; Homo sapiens, MV4-11, 72 h): 100 to 1000 nM

CC(C)N(C)C(=O)c1cc(F)ccc1-n1cc([C@H]2CC[C@@H](N3CCCC3)CC2)c2ccncc21 [Example 56, 5-fluoro-N-isopropyl-N-methyl-2-(3-(cis-4-(pyrrolidin-1-yl)cyclohexyl)-1H-pyrrolo[2,3-c]pyridin-1-yl)benzamide]
IC50 [1]: < 100 nM
EC50 ([2]; Homo sapiens, MV4-11, 72 h): 100 to 1000 nM

Cc1ccccc1CN1CCC(c2cn(-c3ccc(F)cc3C(=O)N(C)C(C)C)c3cnccc23)CC1 [Example 14, 5-fluoro-N-isopropyl-N-methyl-2-(3-(1-(2-methylbenzyl)piperidin-4-yl)-1H-pyrrolo[2,3-c]pyridin-1-yl)benzamide]
IC50 [1]: < 100 nM
EC50 ([2]; Homo sapiens, MV4-11, 72 h): 100 to 1000 nM

CC(C)N(C)C(=O)c1cc(F)ccc1-c1cn(C2CCCN(Cc3ccc4[nH]c(=O)[nH]c4c3)C2)c2ccncc12 (centres unmarked) [Example 74, 5-fluoro-N-isopropyl-N-methyl-2-(1-(1-((2-oxo-2,3-dihydro-1H-benzo[d]imidazol-5-yl)methyl)piperidin-3-yl)-1H-pyrrolo[3,2-c]pyridin-3-yl)benzamide]
IC50 [1]: < 100 nM
EC50 ([2]; Homo sapiens, MV4-11, 72 h): ≥ 1000 nM

CC(C)N(C)C(=O)c1cc(F)ccc1-n1cc(C2CCC(NCC3CCC(NS(C)(=O)=O)CC3)CC2)c2ccncc21 (single isomer, unassigned) [Example 61, 5-fluoro-N-isopropyl-N-methyl-2-(3-(4-(((4-(methylsulfonamido)cyclohexyl)methyl)amino)cyclohexyl)-1H-pyrrolo[2,3-c]pyridin-1-yl)benzamide]
IC50 [1]: < 100 nM
EC50 ([2]; 72 h): 100 to 1000 nM

CC(=O)N[C@H]1CC[C@H](CN2CCC(c3cn(-c4ccc(F)cc4C(=O)N(C)C(C)C)c4cnccc34)CC2)CC1 [Example 20, 2-(3-(1-(((1r,4r)-4-acetamidocyclohexyl)methyl)piperidin-4-yl)-1H-pyrrolo[2,3-c]pyridin-1-yl)-5-fluoro-N-isopropyl-N-methylbenzamide]
IC50 [1]: < 100 nM
EC50 ([2]; Homo sapiens, MV4-11, 72 h): 100 to 1000 nM

CC(C)N(C)C(=O)c1cc(F)ccc1-n1cc(C2CCN(C[C@H]3CC[C@@H](O)CC3)CC2)c2ccncc21 [Example 27A, cis-(5-fluoro-2-(3-(1-((4-hydroxycyclohexyl)methyl)piperidin-4-yl)-1H-pyrrolo[2,3-c]pyridin-1-yl)-N-isopropyl-N-methylbenzamide)]
IC50 [1]: < 100 nM
EC50 ([2]; Homo sapiens, MV4-11, 72 h): ≥ 1000 nM

CCN(C(=O)c1cc(F)ccc1-n1cc(C2CCN(Cc3ccccc3)CC2)c2ccncc21)C(C)C [Example 32, 2-(3-(1-benzylpiperidin-4-yl)-1H-pyrrolo[2,3-c]pyridin-1-yl)-N-ethyl-5-fluoro-N-isopropylbenzamide]
IC50 [1]: < 100 nM
EC50 ([2]; Homo sapiens, MV4-11, 72 h): < 100 nM

CC(C)N(C(=O)c1cc(F)ccc1-n1cc(C2CN(C[C@H]3CC[C@H](NS(C)(=O)=O)CC3)C2)c2ccncc21)C(C)C [Example 138, 5-fluoro-N,N-diisopropyl-2-(3-(1-(((1r,4r)-4-(methylsulfonamido)cyclohexyl)methyl)azetidin-3-yl)-1H-pyrrolo[2,3-c]pyridin-1-yl)benzamide]
IC50 [1]: < 100 nM
EC50 ([2]; Homo sapiens, MV4-11, 72 h): 100 to 1000 nM
